Laboratory results reported in patent publication US20080021030A1, “Substituted Pyrazoles As Ppar Agonists” (priority 2003, published 2008).

Tests used:
Assay in all cases: Transient transfection (transactivation) assay in CV-1 cells, GAL4-PPAR LBD chimera, SPAP reporter
Format in all cases: cell-based
hPPAR delta = biological target: T1, hPPAR delta (Homo sapiens, UniProt Q03181); settings: read-out: EC50 μM HPPARδ
T1 construct: expressed in transfected cells; host or cells: CV-1 cells
T1 sequence (Q03181 211-439 limits assumed): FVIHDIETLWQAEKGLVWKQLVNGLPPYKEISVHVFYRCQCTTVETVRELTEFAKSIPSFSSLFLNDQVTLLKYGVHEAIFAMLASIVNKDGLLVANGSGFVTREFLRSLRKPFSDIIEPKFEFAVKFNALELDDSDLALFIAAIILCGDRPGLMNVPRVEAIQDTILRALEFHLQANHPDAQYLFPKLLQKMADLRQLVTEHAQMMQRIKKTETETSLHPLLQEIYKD
Description: (§1) Compounds were screened for functional potency in transient transfection assays in CV-1 cells for their ability to activate the PPAR subtypes (transactivation assay). A previously established chimeric receptor system was utilized to allow comparison of the relative transcriptional activity of the receptor subtypes on the same target gene and to prevent endogenous receptor activation from complicating the interpretation of results. See, for example, Lehmann, J. M.; Moore, L. B.; Smith-Oliver, T. A.; Wilkison, W. O.; Willson, T. M.; Kliewer, S. A., An antidiabetic thiazolidinedione is a high affinity ligand for peroxisome proliferator-activated receptor gamma (PPARgamma), J. Biol. Chem., 270, 12953-6 (1995). The ligand binding domains for murine and human PPAR alpha, PPAR gamma, and PPAR delta were each fused to the yeast transcription factor GAL4 DNA binding domain. CV-1 cells were transiently transfected with expression vectors for the respective PPAR chimera along with a reporter construct containing five copies of the GAL4 DNA binding site driving expression of secreted placental alkaline phosphatase (SPAP) and beta-galactosidase. After 16 h, the medium was exchanged to DME medium supplemented with 10% delipidated fetal calf serum and the test compound at the appropriate concentration. After an additional 24 h, cell extracts were prepared and assayed for alkaline phosphatase and β-galactosidase activity. Alkaline phosphatase activity was corrected for transfection efficiency using the beta-galactosidase activity as an internal standard (see, for example, Kliewer, S. A., et. al. Cell 83, 813-819 (1995)). Rosiglitazone (BRL 49653) was used as a positive control in the hPPAR gamma assay. The positive control in the hPPAR alpha assays was 2-4-[2-(3-[4-fluorophenyl]-1-heptylureido)ethyl]-phenoxy-(2-methyl propionic acid (WO 97/36579). The positive control for PPAR delta assays was 2-{2-methyl-4-[({4-methyl-2-{trifluoromethyl)phenyl]-1,3-thiazol-5-yl}methyl)sulfanyl]phenoxy}acetic acid (WO 01/00603). The positive control was (5-{4-[2-(Methyl-pyridin-2-yl-amino)-ethoxy]-benzyl}-thiazolidine-2,4-dione (J. Med. Chem. 1994, 37(23), 3977), for PPAR gamma.
(§2) Activities in three hPPAR subtypes are reported in the table and are expressed in micromolar.

hPPAR alpha = biological target: T2, hPPAR alpha (Homo sapiens, UniProt Q07869); settings: read-out: EC50 μM HPPARα
T2 construct: expressed in transfected cells; host or cells: CV-1 cells
T2 sequence (Q07869 239-466 limits assumed): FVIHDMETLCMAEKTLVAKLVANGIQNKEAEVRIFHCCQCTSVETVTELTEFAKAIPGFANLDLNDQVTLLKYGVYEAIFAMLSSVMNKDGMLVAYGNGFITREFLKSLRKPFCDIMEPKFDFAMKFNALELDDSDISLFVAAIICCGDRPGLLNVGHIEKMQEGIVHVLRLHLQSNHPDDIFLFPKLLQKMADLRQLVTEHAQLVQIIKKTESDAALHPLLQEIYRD
Description: as §1, §2

hPPAR gamma = biological target: T3, hPPAR gamma (Homo sapiens, UniProt P37231); settings: read-out: EC50 μM HPPARγ
T3 construct: expressed in transfected cells; host or cells: CV-1 cells
T3 sequence (P37231 238-503 limits assumed): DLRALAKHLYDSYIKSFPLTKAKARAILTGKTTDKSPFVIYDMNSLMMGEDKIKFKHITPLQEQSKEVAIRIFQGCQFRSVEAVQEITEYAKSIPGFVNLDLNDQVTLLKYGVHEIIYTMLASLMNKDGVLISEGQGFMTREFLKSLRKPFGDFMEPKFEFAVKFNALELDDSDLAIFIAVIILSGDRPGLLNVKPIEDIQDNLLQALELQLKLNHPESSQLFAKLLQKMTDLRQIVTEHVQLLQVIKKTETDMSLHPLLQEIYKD
Description: Compounds were screened for functional potency in transient transfection assays in CV-1 cells for their ability to activate the PPAR subtypes (transactivation assay). A previously established chimeric receptor system was utilized to allow comparison of the relative transcriptional activity of the receptor subtypes on the same target gene and to prevent endogenous receptor activation from complicating the interpretation of results. […] The ligand binding domains for murine and human PPAR alpha, PPAR gamma, and PPAR delta were each fused to the yeast transcription factor GAL4 DNA binding domain. CV-1 cells were transiently transfected with expression vectors for the respective PPAR chimera along with a reporter construct containing five copies of the GAL4 DNA binding site driving expression of secreted placental alkaline phosphatase (SPAP) and beta-galactosidase. After 16 h, the medium was exchanged to DME medium supplemented with 10% delipidated fetal calf serum and the test compound at the appropriate concentration. After an additional 24 h, cell extracts were prepared and assayed for alkaline phosphatase and β-galactosidase activity.

Row | SMILES | EC50 (hPPAR delta) [µM] | EC50 (hPPAR alpha) [µM] | EC50 (hPPAR gamma) [µM]
1 | C=CCc1cc(CNC(=O)c2cc(-c3ccc(C(C)(C)C)cc3)nn2C)ccc1OC(C)(C)C(=O)O [Example 3] | > 10 | 0.1 | 0.212
2 | CCn1nc(-c2ccc(C(C)(C)C)cc2)cc1C(=O)NCc1ccc(OC(C)(C)C(=O)O)c(OC)c1 [Example 5] | > 10 | 0.301 | 0.444
3 | COc1cc(CNC(=O)c2cc(-c3ccc(C(C)C)cc3)nn2C)ccc1OC(C)(C)C(=O)O [Example 10] | > 10 | 2.9 | 0.554
4 | COc1cc(CNC(=O)c2cc(-c3ccc(C(C)(C)C)cc3)nn2C)ccc1OC(C)(C)C(=O)O [Example 12, 2-{[4-{[({3-[4-(1,1-dimethylethyl)phenyl]-1-methyl-1H-prazol-5-yl}carbonyl)amino]methyl}-2-(methyloxy)phenyl]oxy}-2-methyl propanoic acid] | > 10 | 1.05 | 0.432
5 | COc1cc(CNC(=O)c2cc(-c3ccc(CC(C)C)cc3)n(C)n2)ccc1OC(C)(C)C(=O)O [Example 14] | > 10 | 0.177 | 0.13
6 | CCn1nc(-c2ccc(C(C)(C)C)cc2)cc1C(=O)NCc1ccc(OC(C)(C)C(=O)O)c(C)c1 [Example 15, 2-[(4-{[({3-[4-(1,1-dimethylethyl)phenyl]-1-ethyl-1H-pyrazol-5-yl}carbonyl)amino]methyl}-2-methylphenyl)oxy]-2-methyl propanoic acid] | 2.44 | 0.075 | 0.024
7 | Cn1nc(-c2ccc(C(C)(C)C)cc2)cc1C(=O)NCc1ccc(OC(C)(C)C(=O)O)cc1 [Example 16, 12-[(4-{[({3-[4-[1,1-dimethylethyl)phenyl]-1-methyl-1H-pyrazol-5-yl}carbonyl)amino]methyl}phenyl)oxy]-2-methylpropanoic acid] | – | 0.163 | 1.09
8 | Cc1cc(CNC(=O)c2cc(-c3ccc(N4CCCC4)cc3)n(C)n2)ccc1OC(C)(C)C(=O)O [Example 20, 2-methyl-2-[(2-methyl-4-{[({1-methyl-5-[4-(1-pyrrolidinyl)phenyl]-1H-pyrazol-3-yl}carbonyl)amino]methyl}phenyl)oxy]propanoic acid] | 1.06 | 0.076 | 0.02
9 | C=CCOc1ccc(-c2cc(C(=O)NCc3ccc(OC(C)(C)C(=O)O)c(C)c3)nn2C)cc1 [Example 59, 2-methyl-2-[(2-methyl-4-{[({1-methyl-5-[4-(2-propen-1-yloxy)phenyl]-1H-pyrazol-3-yl}carbonyl)amino]methyl}phenyl)oxy]propanoic acid] | – | 0.094 | 0.028

Stronger by EC50 (hPPAR alpha), values ahead:

Row | EC50 (hPPAR delta) [µM] | EC50 (hPPAR alpha) [µM] | EC50 (hPPAR gamma) [µM] | SMILES
10 | 5.45 | 0.014 | – | Cc1cc(CNC(=O)c2cc(-c3ccc(C(C)(C)C)cc3)n(C)n2)ccc1OC(C)(C)C(=O)O [Example 1, 2-[(4-{[({5-[4-(1,1-dimethylethyl)phenyl]-1-methyl-1H-pyrazol-3-yl)carbonyl)amino]methyl}-2-methylphenyl)oxy]-2-methylpropanoic acid]
11 | 0.82 | 0.018 | 0.044 | Cc1cc(CNC(=O)c2cc(-c3ccc(C(C)C)cc3)nn2C)ccc1OC(C)(C)C(=O)O [Example 2]
12 | 1.09 | 0.066 | 0.072 | CCCc1cc(CNC(=O)c2cc(-c3ccc(C(C)(C)C)cc3)nn2C)ccc1OC(C)(C)C(=O)O [Example 4, 2-[(4-{[{(3-[4-(1,1-dimethylethyl)phenyl]-1-methyl-1H-pyrazol-5-yl}carbonyl)amino]methyl}-2-propylphenyl)oxy]-2-methylpropanoic acid]
13 | 2.06 | 0.002 | 0.008 | Cc1cc(CNC(=O)c2cc(-c3ccc(CC(C)C)cc3)n(C)n2)ccc1OC(C)(C)C(=O)O [Example 7, 2-methyl-2-[(2-methyl-4-{[({1-methyl-5-[4-(2-methylpropyl)phenyl]-1H-pyrazol-3-yl}carbonyl)amino]methyl}phenyl)oxy]propanoic acid]
14 | 1.07 | 0.051 | 0.059 | Cc1cc(CNC(=O)c2cc(-c3ccc(CC(C)C)cc3)nn2C)ccc1OC(C)(C)C(=O)O [Example 8, 2-methyl-2-[(2-methyl-4-{[({1-methyl-3-[4-(2-methylpropyl)phenyl]-1H-pyrazol-5-yl}carbonyl)amino]methyl}phenyl)oxy]propanoic acid]
15 | 2.17 | 0.05 | – | Cc1cc(CNC(=O)c2cc(-c3ccc(C(C)(C)C)cc3)nn2C)ccc1OC(C)(C)C(=O)O [Example 11, 2-[(4-{[({3-[4-(1,1-dimethylethyl)phenyl]-1-methyl-1H-pyrazol-5-yl}carbonyl)amino]methyl}-2-methylphenyl)oxy]-2-methylpropanoic acid]
16 | > 10 | 0.009 | 0.011 | CCn1nc(C(=O)NCc2ccc(OC(C)(C)C(=O)O)c(C)c2)cc1-c1ccc(C(C)(C)C)cc1 [Example 13, 2-[(4-{[({5-[4-(1,1-dimethylethyl)phenyl]-1-ethyl-1H-pyrazol-3-yl}carbonyl)amino]methyl}-2-methylphenyl)oxy]-2-methylpropanoic acid]
17 | – | 0.07 | 0.376 | Cn1nc(C(=O)NCc2ccc(OC(C)(C)C(=O)O)cc2)cc1-c1ccc(C(C)(C)C)cc1 [Example 17]
18 | 4.02 | 0.004 | 0.009 | Cc1cc(CNC(=O)c2cc(-c3ccc(C(C)C)cc3)n(C)n2)ccc1OC(C)(C)C(=O)O [Example 18]
19 | 1.12 | 0.01 | 0.005 | Cc1cc(CNC(=O)c2cc(-c3ccc(N4CCCCC4)cc3)n(C)n2)ccc1OC(C)(C)C(=O)O [Example 21]
20 | 1.55 | 0.02 | – | Cc1cc(CNC(=O)c2cc(-c3ccc(-c4ccccc4)cc3)n(C)n2)ccc1OC(C)(C)C(=O)O [Example 22, 2-({4-[({[5-(4-biphenylyl)-1-methyl-1H-pyrazol-3-yl]carbonyl}amino)methyl]-2-methylphenyl}oxy)-2-methylpropanoic acid]
21 | 4.33 | 0.067 | 0.779 | Cc1cc(CNC(=O)c2cc(-c3cccc(N4CCCC4)c3)nn2C)ccc1OC(C)(C)C(=O)O [Example 23, 2-methyl-2-[(2-methyl-4-{[({1-methyl-3-[3-(1-pyrrolidinyl)phenyl]-1H-pyrazol 5-yl}carbonyl)amino]methyl}phenyl)oxy]propanoic acid]
22 | > 25 | 0.002 | 0.008 | Cc1cc(CNC(=O)c2cc(-c3ccc(C(C)(C)C)cc3)n(C)n2)cc(C)c1OC(C)(C)C(=O)O [Example 25, 2-{4-[({[5-(4-tert-butylphenyl)-1-methyl-1H-pyrazol-3-yl]carbonyl}amino)methyl]-2,6-dimethylphenoxy}-2-methylpropanoic acid]
